Reference: patent publication US6365585B1, “Phosphodiesterase IV-inhibiting diazepinoindoles” (Warner-Lambert Company, priority 1998, dated 2002)

Assays:
[1] = Metabolism in vitro of MPTDI, human hepatic microsomes (HPLC-MS profile); format: in vitro ADME; details: incubation of MPTDI with human hepatic microsomes
Experimental: (§1) The profile and the identification of the metabolites of MPTDI were obtained after incubation of the product with human hepatic microsomes. The results were compared with those obtained on rat hepatic microsomes. The metabolic profiles obtained by HPLC coupled to a mass spectrometer in these two species are represented in FIG. 1. In some cases, the mass spectra obtained were compared with those of reference substances synthesized by the chemical route. It is deduced therefrom that the profiles obtained on human and rat microsomes are similar: Table 1 collates the measured proportions of the metabolites for these two species.

[2] = Metabolism in vitro of MPTDI, rat hepatic microsomes (HPLC-MS profile); format: in vitro ADME; details: incubation of MPTDI with rat hepatic microsomes
Experimental: as §1

SMILES | Proportions (%) of the metabolites obtained on human hepatic microsomes [1] [%] | Proportions (%) of the metabolites obtained on rat hepatic microsomes [2] [%] | melting point [°C]
Cc1cc2c3c(c1)C(c1ccccc1)=N[C@@H](NC(=O)c1ccncc1)C(=O)N3CC2 [MPTDI, (3R)-N-(9-methyl-4-oxo-1-phenyl-3,4,6,7-tetrahydro[1,4]diazepino[6,7,1-hi]indol-3-yl)isonicotinamide, reference compound] | 79 | 38.2 | –
O=C(NC1N=C(c2ccccc2)c2cc(CO)cc3c2N(CC3)C1=O)c1ccncc1 (centres unmarked) [OH on 9-CH3, N-(9-hydroxymethyl-4-oxo-1-phenyl-3,4,6,7-tetrahydro[1,4]diazepino[6,7,1-hi]indol-3-yl)isonicotinamide] | 4.2 | 24.3 | 260
